Assay results reported in PMC4727820 (Scientia Pharmaceutica, 2014).
Converted amounts (≈) assume the structure as drawn. Read-outs that look alike come from different tables or passages of the source.

Legend:
[1] = Solubility in phosphate buffer (0.16 M); type: physicochemical; conditions: aqueous buffer, thermodynamic from solid
Description: Excess amounts of each salt were added to the phosphate buffer (0.5 ml) individually. The mixtures were stirred and centrifuged at 6000 rpm for 6 min. The concentrations of each of the salts in their saturated solutions were analyzed by HPLC. The pH of the solutions was held constant throughout the experiment.

[2] = cited from earlier work
[3] = In vitro skin permeation study, Franz-type diffusion cell; type: in vitro ADME; conditions: male, Wistar, rat, read-out: Kp x10^6 (permeability coefficient) (converted)
Description: The in vitro skin permeation study was performed by using skin from the whole dorsal area of a male Wistar rat. […] For each salt and the parent drug, the cumulative amounts permeated through the skin were plotted against time. A steady-state flux (Jss) was obtained by dividing the slope of that graph by the surface area of the diffusion cell (4.906 cm^2).
All the reagents and solvents required for the syntheses were purified by general laboratory techniques before use. The purity of the compounds and completion of the reactions were monitored by thin layer chromatography (TLC) on silica gel plates (60 F254; Merck), visualized with ultraviolet light or iodine vapors. […] Melting points were determined using a Veego make silicon oil bath-type melting point apparatus and are uncorrected. The IR spectra were recorded using the KBr disc method in cm^−1 on a Bruker FTIR, Model 8300. The PMR spectra were recorded in CDCl3 on a Bruker 400 MHz spectrometer (chemical shifts in δ ppm, coupling constant J in Hz). λmax was determined on the Shimadzu 1800 UV spectrophotometer. The mass of the compounds was determined by LC-MS using electron impact as the source of ionization. DSC was performed on the Shimadzu DSC-60 model with the thermal analyser TA 60WS. The scanning electron microscope (SEM) model ESEM-EDAX XL-30, Philips (Netherlands) was used for the study of surface morphology. In vitro skin permeation studies were conducted using a Franz-type diffusion cell using skin from the whole dorsal area of a male Wistar rat (200 ± 10 g). Animal experiments were performed with the approval of the institutional animal ethical committee (MSU/PHARM/IAEC/2011/14) in accordance with Laboratory Animal Welfare guidelines.
In vitro skin permeation studies were performed by using skin from the whole dorsal area of a male Wistar rat in a Franz-type diffusion cell. Skin specimens were rehydrated before being mounted in the diffusion cell. The receptor medium (0.05 M phosphate buffer saline solution of pH 7.4) was stirred and kept at 37±1°C throughout the study.
The permeability coefficients (Kp) for the steady-state delivery were obtained by dividing the steady-state flux (Jss) by the solubilities of the compounds in the corresponding vehicle. The receiver medium (0.05 M phosphate buffer saline solution of pH 7.4) was stirred and kept at 37±1°C throughout the study. The compounds were applied as solutions in the phosphate buffer of pH 5.0 or 7.4. At specified time intervals, aliquots (0.5 ml) were withdrawn from the receiver compartment and replaced with fresh buffer. The drug concentrations were analyzed by HPLC.

solubility ([1]; pH 5.0, room temperature) [mM] | solubility ([1]; pH 7.4, room temperature) [mM] | Papp ([3]; pH 5) [nm/s] | Papp ([3]; pH 7.4) [nm/s] | Structure (SMILES) | half-life [2] [h]
0.57 ± 0.14 (≈ 121 µg/mL) | 54.08 ± 0.14 (≈ 11500 µg/mL) | 2.08 | 0.0833 | O=C(O)Cc1ccc(-c2ccccc2)cc1 [compound 1, reference compound] | > 10
28.96 ± 0.28 | 24.1 ± 0.34 | 0.222 | 1.78 | NCCO.O=C(O)Cc1ccc(-c2ccccc2)cc1 [1b] | 
14.2 ± 0.31 | 17.1 ± 0.21 | 0.333 | 0.667 | O=C([O-])Cc1ccc(-c2ccccc2)cc1.[Na+] [1a] | 
